Reference: patent US8124774B2, “Therapeutic ((phenyl)imidazolyl)methylquinolinyl compounds” (Allergan, Inc., priority 2007, dated 2012)

What was measured:
Assay type in all cases: cell-based
[1] = molecular target: T1, alpha2c receptor (Homo sapiens, UniProt P18825); experiment: RSAT assay (Receptor Selection and Amplification Technology), alpha2C; settings: for EC50: NIH-3T3 cells cotransfected with receptor and Gq/i5, read-out: Alpha 2C potency EC50; for Alpha 2C intrinsic activity (efficacy): value in parentheses, ratio of maximal effect to that of standard full agonist brimonidine (UK14304)
T1 construct: expressed in transfected cells; host or cells: NIH-3T3
T1 sequence (P18825 1-462): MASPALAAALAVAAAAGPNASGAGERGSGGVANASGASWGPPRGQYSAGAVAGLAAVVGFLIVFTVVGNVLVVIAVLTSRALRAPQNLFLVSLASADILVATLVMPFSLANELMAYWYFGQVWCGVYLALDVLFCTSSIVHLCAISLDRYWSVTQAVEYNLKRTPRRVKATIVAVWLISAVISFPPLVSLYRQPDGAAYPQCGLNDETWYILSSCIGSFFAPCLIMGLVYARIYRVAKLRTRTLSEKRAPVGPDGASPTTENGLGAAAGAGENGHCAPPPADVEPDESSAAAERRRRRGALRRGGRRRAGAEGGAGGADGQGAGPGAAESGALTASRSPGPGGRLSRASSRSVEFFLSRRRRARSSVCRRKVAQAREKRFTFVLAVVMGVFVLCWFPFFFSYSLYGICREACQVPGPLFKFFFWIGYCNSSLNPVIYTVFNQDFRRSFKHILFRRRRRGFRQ
Protocol: (§1) Receptor Selection and Amplification Technology (RSAT) Assay
(§2) The RSAT assay measures a receptor-mediated loss of contact inhibition that results in selective proliferation of receptor-containing cells in a mixed population of confluent cells. The increase in cell number is assessed with an appropriate transfected marker gene such as β-galactosidase, the activity of which can be easily measured in a 96-well format. Receptors that activate the G protein, Gq, elicit this response. Alpha2 receptors, which normally couple to Gi, activate the RSAT response when coexpressed with a hybrid Gq protein that has a Gi receptor recognition domain, called Gq/i5.
(§3) NIH-3T3 cells are plated at a density of 2×10^6 cells in 15 cm dishes and maintained in Dulbecco's modified Eagle's medium supplemented with 10% calf serum. One day later, cells are cotransfected by calcium phosphate precipitation with mammalian expression plasmids encoding p-SV-β-galactosidase (5-10 μg), receptor (1-2 μg) and G protein (1-2 μg). 40 μg salmon sperm DNA may also be included in the transfection mixture. Fresh media is added on the following day and 1-2 days later, cells are harvested and frozen in 50 assay aliquots. Cells are thawed and 100 μl added to 100 μl aliquots of various concentrations of drugs in triplicate in 96-well dishes. Incubations continue 72-96 hr at 37° C. After washing with phosphate-buffered saline, β-galactosidase enzyme activity is determined by adding 200 μl of the chromogenic substrate (consisting of 3.5 mM o-nitrophenyl-β-D-galactopyranoside and 0.5% nonidet P-40 in phosphate buffered saline), incubating overnight at 30° C. and measuring optical density at 420 nm. The absorbance is a measure of enzyme activity, which depends on cell number and reflects a receptor-mediated cell proliferation. The efficacy or intrinsic activity is calculated as a ratio of the maximal effect of the drug to the maximal effect of a standard full agonist for each receptor subtype. Brimonidine, also called UK14304, the chemical structure of which is shown below, is used as the standard agonist for the alpha2A, alpha2B and alpha2c receptors. The EC50 is the concentration at which the drug effect is half of its maximal effect.
(§4) EC50 values are nanomolar. ND stands for “not determinable” at concentrations less than 10 micromolar. IA stands for “intrinsic activity.”

[2] = molecular target: T2, alpha2A receptor (Homo sapiens, UniProt P08913); experiment: RSAT assay (Receptor Selection and Amplification Technology), alpha2A; settings: value in parentheses; ratio of maximal effect to that of standard full agonist brimonidine (UK14304)
T2 construct: expressed in transfected cells; host or cells: NIH-3T3
T2 sequence (P08913 1-465): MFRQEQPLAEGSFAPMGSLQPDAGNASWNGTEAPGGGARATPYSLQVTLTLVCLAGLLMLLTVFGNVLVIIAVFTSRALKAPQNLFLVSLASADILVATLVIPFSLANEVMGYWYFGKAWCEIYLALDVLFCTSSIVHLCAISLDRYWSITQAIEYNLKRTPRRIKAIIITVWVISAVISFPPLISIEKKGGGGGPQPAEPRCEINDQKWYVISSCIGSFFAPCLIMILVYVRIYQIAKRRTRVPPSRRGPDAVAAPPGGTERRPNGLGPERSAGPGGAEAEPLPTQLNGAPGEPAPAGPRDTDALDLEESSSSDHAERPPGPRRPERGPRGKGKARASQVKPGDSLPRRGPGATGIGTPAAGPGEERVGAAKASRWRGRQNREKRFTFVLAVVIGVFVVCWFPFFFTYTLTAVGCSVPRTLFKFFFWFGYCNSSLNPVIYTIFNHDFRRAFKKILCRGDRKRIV
Protocol: as §1, §2
NIH-3T3 cells are plated at a density of 2×10^6 cells in 15 cm dishes and maintained in Dulbecco's modified Eagle's medium supplemented with 10% calf serum. […] After washing with phosphate-buffered saline, β-galactosidase enzyme activity is determined by adding 200 μl of the chromogenic substrate (consisting of 3.5 mM o-nitrophenyl-β-D-galactopyranoside and 0.5% nonidet P-40 in phosphate buffered saline), incubating overnight at 30° C. and measuring optical density at 420 nm. The absorbance is a measure of enzyme activity, which depends on cell number and reflects a receptor-mediated cell proliferation. […]

[3] = molecular target: T3, alpha2B receptor (Homo sapiens, UniProt P18089); experiment: RSAT assay (Receptor Selection and Amplification Technology), alpha2B; settings: for EC50: NIH-3T3 cells cotransfected with receptor and Gq/i5, read-out: Alpha 2B potency EC50; for Alpha 2B intrinsic activity (efficacy): value in parentheses, ratio of maximal effect to that of standard full agonist brimonidine (UK14304)
T3 construct: expressed in transfected cells; host or cells: NIH-3T3
T3 sequence (P18089 1-450): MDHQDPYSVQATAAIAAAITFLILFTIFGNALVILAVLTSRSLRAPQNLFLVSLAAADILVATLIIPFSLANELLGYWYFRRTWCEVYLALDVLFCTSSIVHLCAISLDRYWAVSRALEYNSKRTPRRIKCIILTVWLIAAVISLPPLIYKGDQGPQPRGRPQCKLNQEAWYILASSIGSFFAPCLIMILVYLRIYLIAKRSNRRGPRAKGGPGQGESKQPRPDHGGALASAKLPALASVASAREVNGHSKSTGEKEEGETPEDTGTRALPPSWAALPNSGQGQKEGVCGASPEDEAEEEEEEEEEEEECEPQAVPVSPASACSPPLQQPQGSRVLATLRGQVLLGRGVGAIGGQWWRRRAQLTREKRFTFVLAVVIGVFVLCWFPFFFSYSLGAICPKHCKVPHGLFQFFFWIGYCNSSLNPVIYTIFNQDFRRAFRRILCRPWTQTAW
Protocol: as §1, §2, §3, §4

Row | SMILES | EC50 [1] [nM] | Alpha 2C intrinsic activity (efficacy) [1] | Alpha 2A intrinsic activity (efficacy) [2] | EC50 [3] [nM] | Alpha 2B intrinsic activity (efficacy) [3]
1 | c1ccc(C(c2cnc[nH]2)c2cccc3ncccc23)cc1 (stereo not shown) [5-((1H-imidazol-5-yl)(phenyl)methyl)quinoline] | 50 | 0.33 | 0.12 | 319 | 0.89
2 | c1ccc(C(c2cnc[nH]2)c2cccc3cccnc23)cc1 (stereo not shown) [8-((1H-imidazol-5-yl)(phenyl)methyl)quinoline] | 832 | 0.61 | 0.09 | 23 | 1.16
